In publication PMC13195669, “GPR3 Ligands Discovered through Combined Virtual and Conformational Biosensor-Based Screening” (Journal of the American Chemical Society, 2026):

Target: T1, GPR3 (Homo sapiens, UniProt P46089)
T1 construct: host or cells: HEK293A, transient
Assay: FRET/BRET cAMP biosensor in HEK293A cells cotransfected with GPR3
Format: cell-based
Details: for GPR3-dependent change in cAMP: cAMP biosensor, pcDNA vs GPR3 transfected HEK293A
Text: With the first GPR3 ligands identified by using a conformational readout in our hands, we next wanted to understand whether these compounds could have been detected in a cAMP-based assay, which has been used extensively in the past to screen for GPR3 ligands. We therefore tested rac-VH1/52, VH2/93 and VH3/115 in cells expressing a cAMP biosensor.
3 Effect of rac-VH1/52, VH2/93 and VH3/115 on GPR3-dependent cAMP production. (a–c) Vehicle-corrected BRET changes induced by rac-VH1/52 (a), VH2/93 (b) or VH3/115 (c) in HEK293A cells transiently transfected with a cAMP BRET sensor along with pcDNA or GPR3. […] Statistical significance was tested using Two-Way ANOVA followed by Sidak multiple comparison (*: […]; **: p < 0.01). […]
Plasmids and molecular cloning
The H187-EPAC-FRET sensor7 was kindly provided by K. Jalink (The Netherlands Cancer Institute, Amsterdam, The Nether-lands). The BRET-based cAMP sensor CAMYEL8 was kindly provided by Laura Humphrys (University of Regensburg, Regens-burg, Germany). Plasmids encoding the conformational biosensors α2AAR- and β2AR-HaloTag/Nluc9 and the Gs heterotrimer dissociation sensor10 were previously described. The expression plasmid encoding N-terminally HA-tagged GPR3 (cat. no.
#GPR003TN00) on a pcDNA3.1+ vector was obtained from the cDNA resource center (cdna.org). The Nluc and HaloTag in-serts were amplified with overhanging restriction sites from β2AAR- HaloTag/Nluc and ligated to the full-length C-terminus or inserted into icl3 of GPR3, respectively, to obtain the conformational biosensor GPR3-HaloTag/Nluc. Point mutants of GPR3-HaloTag/Nluc were generated using the GeneArt Site-directed Mutagenesis System (Thermo Fisher Scientific). All con-structs were verified by sequencing (Eurofins genomics).
Poly-D-lysine, polyethylenimin hydrochloride (linear; average Mn 20 000; PEI) , […], LPA , forskolin, NECA and bovine serum albumin (BSA) were obtained from Sigma Aldrich (Merck KGaA). Dulbecco's Modified Eagle's Medium (DMEM), Dul-becco's Phosphate -Buffered Saline (DPBS) and G -418 (Geneticin) were from Gibco. Diphenyleneiodonium chloride (DPI) and AF64394 were purchased from Tocris (Bio -Techne). The TMB (3, 3', 5, 5' tetramethyl benzidine) substrate reagent set was from BioLegend. The Nluc substrate furimazine and the red fluorescen t HaloTag dye, HaloTag® NanoBRET® 618 Ligand, were obtained in a single kit from Promega (cat. no. N1662). D-luciferin-sodium and the S1PR1 agonist III were from Med-ChemExpress. The Rluc substrate coelenterazine 400a was from NanoLight Technology (cat. no. 340 -10). White -wall, white - bottomed 96 -well, black -wall, black bottomed and transparent 96 -well microtiter plates were from Brand.
HEK293A cells were used for transient transfection and grown in Dulbecco’s modified Eagle’s medium (DMEM) supplemented with 2 mM glutamine, 10 % fetal calf serum, streptomycin (0.1 mg/mL), and penicillin (100 U/mL) at 37 °C with 5 % CO2. […]
Transient transfection and plating
Resuspended cells (300,000 cells/mL) were transfected in suspension with a total of 1 μg DNA/mL suspension using PEI (1 mg/ml stock solution; 3 μL PEI solution per μg DNA). For cAMP experiments with FRET- or BRET-based sensors, resuspended cells were transfected with 500 ng pcDNA, wildtype GPR3 or GPR3-HaloTag/Nluc constructs along with 500 ng of the FRET-or BRET-based cAMP sensor per mL cell suspension. For cAMP experiments with GloSensor™ 22F, resuspended cells were transfected with 250 ng pcDNA or GPCR along with 500 ng of a 1:1 mix of pcDNA with the GloSensor™ 22F per mL cell sus-pension. Cells mixed with the transfection reagents were seeded onto poly-D-lysine–precoated, 96-well plates and grown for 48 h at 37 °C with 5 % CO2. Stable α2AAR-, β2AR- or GPR3-HaloTag/Nluc expressing cells were seeded 24 h before the experi-ment at a density of 800,000 cells/mL into white 96-well plates. To monitor changes in BRET in with conformational GPCR […]

[1] = 30 μM pretreatment, cells coexpressing GPR3

T1 sequence (P46089 whole entry): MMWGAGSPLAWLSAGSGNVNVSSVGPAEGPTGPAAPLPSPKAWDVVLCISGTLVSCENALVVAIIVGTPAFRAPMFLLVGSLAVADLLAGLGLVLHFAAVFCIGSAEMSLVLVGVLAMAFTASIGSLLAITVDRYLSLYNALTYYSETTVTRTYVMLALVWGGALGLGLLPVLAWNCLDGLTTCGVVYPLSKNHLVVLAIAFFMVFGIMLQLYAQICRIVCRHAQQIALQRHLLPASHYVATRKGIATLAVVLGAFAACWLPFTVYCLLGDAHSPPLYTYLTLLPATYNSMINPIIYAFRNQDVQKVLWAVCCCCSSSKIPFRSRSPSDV

SMILES	effect of pretreatment on AF64394 response in cAMP assay [1]	effect of pretreatment on DPI-induced cAMP generation [1]	GPR3-dependent change in cAMP
N=c1n(Cc2ccccc2)c2ccccc2n1CC1CC1 [compound 33]	no effect on the effect of AF64394	inhibited DPI-induced cAMP generation	–
Cc1ccc(NC(=O)CN2CCN(C(=O)CCc3ccc(Cl)cc3)CC2)cc1 [compound 115]	–	–	modulates the conformation of GPR3 but not GPR3-dependent cAMP production
N=c1n(Cc2ccccc2)c2ccccc2n1CC(O)COc1ccc(Cl)cc1 (stereo not shown) [compound 52]	–	–	induced GPR3-dependent changes in cAMP concentrations
